The EC50 is the concentration that produces a half-maximal response. For orientation: IC50 means the concentration that gives 50% inhibition. A high value points to lower potency.

This assay relates to CEM cells HIV-1 protection, formazan growth assay. Kind of assay: NCI AIDS Antiviral Assay. The conditions noted are these: for IC50: measured here: growth of uninfected CEM cells. The method in brief: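 Human CEM cells, uninfected and HIV-1-infected, exposed to five drug concentrations; growth measured by soluble formazan assay and scored as percent protection from infection, with protecting compounds retested.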

The source made the active and inactive calls.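 Rule for the calls: active = compounds giving half or more protection of infected cells from virus-caused growth loss, again on retest; inactive = the rest.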

Turning to `C/C(=N/NC(=O)c1ccccc1O)c1ccc(/C(C)=N\NC(=O)c2ccccc2O)c2nc3cc(C)c(C)cc3nc12`, the EC50 is more than 64.6 µM and the concentration for half-maximal inhibition (IC50) was more than 64.6 µM.
As for `CCOC(=O)/C(Br)=C/SCCC(=O)O`, the EC50 was more than 891 µM and the IC50 came to 174 µM.
As to `CN(C)CC/C(=N\Nc1ccc(Cl)c(Cl)c1)c1ccccc1`, the outcome was inactive.
Consider `C=C(Nc1ccc(OC)cc1OC)C(=O)Cc1cccc[n+]1[O-]`, for which the EC50 is more than 794 µM and the concentration for half-maximal inhibition (IC50) is more than 794 µM.
`CO[C@@H]1[C@H](O)CC[C@]2(CO2)[C@H]1[C@@]1(C)O[C@@H]1CC=C(C)C`: the EC50 is more than 200 µM and the IC50 came out at 85.1 µM.
As to `CC(=O)Oc1c2occc2cc2ccc(=O)oc12`, the EC50 is more than 72.4 µM and the IC50 is more than 72.4 µM.
`COC(=O)c1c2c(cc3c1CC1(Cc4cc5c(c(C=O)c4C1)CCC5)C3)CCC2` (stereo not given): the EC50 is more than 200 µM and the concentration for half-maximal inhibition (IC50) was determined as 20 µM.
Turning to `O=C(O)/C(=C/c1ccc([N+](=O)[O-])cc1)c1ccccc1`, the EC50 was more than 490 µM and the concentration for half-maximal inhibition (IC50) turned out to be 95.5 µM.
On the same counts, the results for `CC(=O)Nc1ccc(S(=O)(=O)N/N=C(\C)CN2C(=O)c3ccccc3C2=O)cc1` are more than 229 µM and more than 229 µM.
The matching figures for `CC1(Br)C2c3ccccc3C(c3ccccc32)C1(C)C(Cl)(Cl)Cl` (stereo not given): more than 16.6 µM and more than 16.6 µM.
Regarding `COc1cc(C(=O)N/N=C/N(C)C)cc(OC)c1OC`, the EC50 was more than 200 µM and the IC50 is more than 200 µM.
In the case of `O=c1nc(Oc2c(F)c(F)c(F)c(F)c2F)ccn1C1OC(CO)C(O)C1O` (stereo not given), the EC50 is more than 200 µM and the 50% inhibitory concentration (IC50) was determined as 120 µM.
The matching figures for `O=C1OC(CS(=O)(=O)c2ccccc2)CC1O` (stereo not given): more than 200 µM and more than 200 µM.
The matching figures for `Cc1ccnc(NS(=O)(=O)c2ccc(N=Cc3ccccc3O)cc2)n1`: more than 200 µM and more than 200 µM.
The matching figures for `COc1ccc(N(c2ccc(C#N)cc2)c2ccc(C#N)cc2)cc1`: more than 45.7 µM and 33.1 µM.
With `CC(C)(C)C1CCC2c3c([nH]c4ccccc34)C3C(=O)N(c4ccc(C#N)cc4)C(=O)C3C2C1` (stereo not given), the EC50 was more than 200 µM and the IC50 was determined as 10 µM.
On the same counts, the results for `COc1cc(Nc2nc3ccc(C(F)(F)F)cc3nc2C(=O)O)cc(OC)c1OC` are more than 200 µM and 27.5 µM.
For `COc1c(OC2OC(CO)C(O)C(O)C2O)cc2occ(-c3ccc4c(c3)OCO4)c(=O)c2c1O` (stereo not given), the EC50 was more than 200 µM and the IC50 was more than 200 µM.
In the case of `CCOC(=O)Cc1nc2nn(Cc3ccccc3)cc2c(=O)[nH]1`, the EC50 was more than 200 µM and the IC50 was more than 200 µM.
Turning to `CC1CCCN2C(=O)CN(N3CCOCC3)CC(=O)N12` (stereo not given), the EC50 is more than 200 µM and the IC50 is more than 200 µM.
For `Clc1ccc(-c2c(C3=NCCCN3)nnn2-c2ccccc2)cc1`, the EC50 was more than 389 µM and the 50% inhibitory concentration (IC50) was more than 389 µM.
Take `Cn1c(=O)cc(CC(=O)C(=O)O)c2ccccc21`: the EC50 is more than 200 µM and the IC50 amounted to 148 µM.
Consider `CCOC(=O)c1sc2[n+](c1C)C(=O)/C(=C/c1ccccc1Cl)S2`, for which the EC50 was more than 200 µM and the IC50 was 3.39 µM.
On the same counts, the results for `O=S(=O)(Nc1ncccn1)c1ccc(N=NSC2=NC=NC3=NC=NC32)cc1` (stereo not given) are more than 200 µM and 5.25 µM.
The matching figures for `CC1CCC2[C@@H](C)COC3O[C@]4(C)CCC1C32OO4` (stereo not given in full): more than 339 µM and 302 µM.
With `N#CC(Sc1ccccc1)c1ccccc1` (stereo not given), the EC50 was more than 44.7 µM and the IC50 is more than 44.7 µM.
With `COc1c(C(CC(C)C)OC(C)=O)ccc2c1C(=O)OCc1cc(C)cc(O)c1O2` (stereo not given), the EC50 was more than 200 µM and the concentration for half-maximal inhibition (IC50) is 10.5 µM.
For the compound `Cn1cnnc1Sc1c([N+](=O)[O-])ncn1C`, the EC50 was more than 1050 µM and the IC50 came out at 9.12 µM.
On the same counts, the results for `COc1cc(Cl)cc(N(O)C(C)=O)c1OCc1ccccc1` are more than 562 µM and 58.9 µM.
On the same counts, the results for `CCOC(=O)C(C#N)C1=CC(=O)C(=O)c2ccc(O)cc21` (stereo not given) are more than 457 µM and 209 µM.
The matching figures for `Cc1cc2c(c(=O)o1)C(=O)CC(C)O2` (stereo not given): more than 776 µM and 117 µM.
`Nc1nc(Cl)cc(NC23CC4CC(CC(C4)C2)C3)n1`: the EC50 is more than 200 µM and the IC50 is more than 200 µM.
As to `COc1cc(N=Nc2ccccc2)cc(/C=N/NC(N)=S)c1[O-].[CH2-]/[N+](=C\c1cc(N=Nc2ccccc2)cc(OC)c1[O-])NC(N)=S.[O]=[Mo+2]=[O].[O]=[Mo]=[O]`, the EC50 was more than 38.9 µM and the half-inhibitory concentration (IC50) came out at 5.25 µM.
Regarding `CCOC(=O)C1CC(O)C(=O)N1C` (stereo not given), the outcome was inactive.
As to `COC(=O)c1cc2cnc1CSCc1cnc(c(C(=O)OC)c1)CSC2`, the EC50 was more than 200 µM and the IC50 was more than 200 µM.
Turning to `CCC1C(=O)OCc2c1cc1n(c2=O)CCC12OCCO2` (stereo not given), the EC50 is more than 851 µM and the IC50 was more than 851 µM.
For the compound `c1cnn(C23C4C5C6C4C2C6C53)c1` (stereo not given), the EC50 was more than 200 µM and the IC50 was more than 200 µM.
On to `NC(=O)NC(=NCc1ccccc1)NCc1ccccc1`, for which the EC50 is more than 776 µM and the IC50 turned out to be 107 µM.
Turning to `O=C(c1ccccc1)c1c(O)c2ccccc2oc1=O`, the outcome was inactive.
The same measure, in the same setting: the result for `Nc1ncnc2c1ncn2-c1ccc([N+](=O)[O-])cn1` reads “inactive”.
Take `N#CC(/C(CCCC(=O)Nc1cccc([N+](=O)[O-])c1)=N/NC(=O)c1cc2ccccc2cc1O)c1ccccc1` (stereo not given): the EC50 is more than 35.5 µM and the IC50 came out at 15.5 µM.
With `CCCC[N+](CCCC)(CCCC)C1=C([O-])C(F)(F)C1=O`, the EC50 was more than 200 µM and the IC50 is more than 200 µM.
Consider `CCN=C(NC(=O)c1c(Cl)cccc1Cl)SCSC(=NCC)NC(=O)c1c(Cl)cccc1Cl`, for which the EC50 is more than 200 µM and the IC50 came out at 170 µM.
`O=[N+]([O-])c1cc(C(F)(F)F)cc2c1SC1=Nc3ccccc3CN12`: the outcome was inactive.
For `Oc1cc2c(cc1O)C1c3ccc(O)c(O)c3OCC1(O)C2` (stereo not given), the EC50 is more than 200 µM and the half-maximal inhibitory concentration (IC50) was found to be 9.55 µM.
As to `COc1ccc2c(N=[N+]=[N-])c(-c3ccccc3)c(=O)oc2c1`, the outcome was inactive.
In the case of `CCCC/C=C/C/C=C/CCCCCCCCC(=O)OCC1CCCN2CCCCC12` (stereo not given), the EC50 is more than 200 µM and the IC50 stood at 7.94 µM.
On the same counts, the results for `COc1cc(C2C(Cl)C(=O)N2NC(=O)Cc2ccccc2)cc(Br)c1O` (stereo not given) are more than 30.9 µM and more than 30.9 µM.
The matching figures for `COc1ccc(C=C(Cl)Cl)cc1OC`: more than 200 µM and more than 200 µM.
Consider `O=C(c1cccs1)N(C(=S)N1CCN(c2ccccc2)CC1)C1CCCCC1`, for which the EC50 was more than 12.6 µM and the 50% inhibitory concentration (IC50) was more than 12.6 µM.
For `CC(C)(C)c1cc(C(C)(C)O)c2c(c1)C(C)(C)OS2(C)Cl` (stereo not given), the EC50 was more than 200 µM and the IC50 was 112 µM.
The matching figures for `CCN(CC)c1ccc(N=Nc2ccc(-c3nc4ccc[n+](C)c4s3)cc2)cc1`: more than 7.08 µM and 4.79 µM.
Consider `O=C(/C=C/c1ccsc1)c1ccco1`, for which the EC50 is more than 200 µM and the IC50 amounted to 11 µM.

The values above are taken from PubChem BioAssay AID179 (DTP/NCI, 2004).
